Assay results reported in patent US10138212B2, “Aminoquinazoline compounds as A2A antagonist” (Merck Sharp & Dohme Corp., priority 2015, dated 2018).

Columns and labels:
[1] = target: human A2a receptor (Homo sapiens (Human), UniProt P29274); experiment: A2a competition binding assay using Scintillation Proximity technology
Experimental: (§1) Binding affinities of compounds of the invention for the human A2a receptor were determined in a competition binding assay using Scintillation Proximity technology. Thus, 1* μg, or preferably 0.25 μg of membranes from HEK293 cells expressing the human A2a receptor were incubated with a compound of the invention at concentrations ranging from 3000 nM to 0.15 nM in a reaction mixture containing also 0.5 nM of a tritiated form of 5-amino-7-[2-phenethyl]-2-(furan-2-yl)-7H-pyrazolo[4,3-e][1,2,4]triazolo[1,5-c]pyrimidine (the tritiated compound) and 25 μg of wheat germ agglutin-coated yttrium silicate SPA beads for one hour at room temperature with agitation. The beads were then allowed to settle to the bottom of the wells for 1 hr, after which the membrane-associated radioactivity was determined by scintillation counting in a TopCount microplate reader. Ki values were determined using the Cheng-Prusoff equation.
HEK293 cells expressing the human, rat, dog or monkey adenosine 2a receptor (Purchased from Perkin-Elmer # RBHA2AM400UA).
The Tritiated compound was prepared in-house by MRL Radiochemistry according to published methods.
Wheat germ agglutinin-coated yttrium silicate SPA beads (GE Healthcare #RPNQ0023). Dilute to 25 mg/ml in assay buffer.
Assay Buffer was prepared in house: Dulbecco's calcium and magnesium free phosphate buffered saline+10 mM MgCl2
Adenosine deaminase from calf intestine, 10 mg/2 ml (Roche #10 102 105 001).
A2a antagonist standard (9-chloro-1-(2-furanyl)-[1,2,4]triazolo1,5-c]quinazolin-5-amine from Tocris Bioscience)
Make eight 1:3 serial dilutions in 100% DMSO from a 3 mM compound stock
Transfer 50 nl of compound into a 384-well OptiPlate (Perkin Elmer).
Typically, final concentrations of compound used in the assay ranged from 3000 nM to 0.152 nM.
Dilute a solution of the Tritiated compound to 1.25 nM in assay buffer. This is a 2.5× solution. The final concentration in the assay is 0.5 nM. Calculate the concentration by counting two 5 μl aliquots.
Use *1 ug or preferrably 0.25 ug of membrane/well. Dilute membranes to 9.7 μg/ml in assay buffer. Treat with 20 ug/ml adenosine deaminase (ADA) for 15 minutes at room temperature to degrade endogenous adenosine.
Use 25 μg/well wheat germ agglutinin-coated yttrium silicate SPA beads.
Mix ADA-treated membranes and SPA beads together for 30 min prior to assay.
To the Perkin-Elmer Optiplate-384 containing the compound titration add 20 μl of 2.5× solution of the Tritiated compound and 30 μl of the membrane-bead mixture. Incubate for one hour at room temperature with agitation.
Include total binding (assay buffer+1% DMSO) and non-specific binding (CGS15943, 1 μM) wells.
Allow the beads to settle for one hour.
A curve fitting program (i.e., Prism, Activity Base, Chemcart) is used to determine the EC50. The Ki value is calculated using the Cheng-Prusoff equation. Ki=EC50/(1+(radioligand concentration/Kd))
Using the foregoing assay method, the Ki results were obtained using the compounds of the invention described in Tables IIIa, IIIb, and IV. Each example compound tested is reported in the following format: Example number: A2a Ki reported in nM. Thus, for example, the compound Ex-1 was determined to have an Ki using the above-described assay and calculations, of 10.0 nM.

[2] = target: human A1 receptor (Homo sapiens (Human), UniProt P30542); experiment: A1 competition binding assay using Scintillation Proximity technology; selectivity = A1 binding Ki / A2a binding Ki; settings: A1 binding Ki divided by A2a binding Ki
human A1 receptor, sequence (P30542 whole entry): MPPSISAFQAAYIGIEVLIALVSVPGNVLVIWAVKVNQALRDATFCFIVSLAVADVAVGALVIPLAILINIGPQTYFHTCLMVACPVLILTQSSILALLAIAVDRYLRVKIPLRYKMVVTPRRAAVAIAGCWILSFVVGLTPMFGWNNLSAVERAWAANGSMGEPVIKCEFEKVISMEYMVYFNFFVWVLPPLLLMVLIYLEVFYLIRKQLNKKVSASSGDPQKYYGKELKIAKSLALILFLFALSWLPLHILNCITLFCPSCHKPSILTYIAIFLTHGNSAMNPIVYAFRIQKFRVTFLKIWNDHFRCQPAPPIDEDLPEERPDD
Experimental: as §1, with “A1” for “A2a”, “5” for “1* μg, or preferably 0.25 μg”, “CHO-K1” for “HEK293”, “0.7” for “0.5”, “8-Cyclopentyl-1,3-dipropylxanthine” for “5-amino-7-[2-phenethyl]-2-(furan-2-yl)-7H-pyrazolo[4,3-e][1,2,4]triazolo[1,5-c]pyrimidine”, “in a similar fashion described with A2a binding.” for “using the Cheng-Prusoff equation.”
• Cells expressing the human, rat, dog or monkey adenosine 1 receptor (Purchased from Perkin-Elmer # ES-010-M400UA • [^3H]DPCPX (purchased from Perkin-Elmer NET-974, 8-cyclopentyl-1,3-dipropylxanthine, [dipropyl-2,3-^3H(N)]. • Wheatgerm agglutinin-coated yttrium silicate SPA beads (Purchased from GE Healthcare #RPNQ0023). Dilute to 25 mg/ml in assay buffer. Store at 4° C. • Assay Buffer—Dulbecco's phosphate buffered saline without calcium and without magnesium+10 mM MgCl2 • Adenosine deaminase from calf intestine, 10 mg/2 ml (Roche #10 102 105 001). • DMSO • DPCPX (A1 antagonist) from Tocris Bioscience Compound Dilution • Dilute compounds to 1 mM in 100% DMSO
Make serial dilutions as necessary (i.e., 1:10, 1:3) in 100% DMSO.
Dilute 1:20 into assay buffer (i.e. 3 ul into 57 ul buffer). This is a 5× solution in 5% DMSO.
• Dilute [^3H]DPCPX to 1.75 nM in assay buffer. This is a 2.5× solution. The final concentration in the assay is 0.7 nM. Calculate the concentration by counting two 5 ul aliquots. Membrane Preparation • Use 5 ug of membrane/well. Dilute membranes to 250 ug/ml in assay buffer. Treat with 20 ug/ml adenosine deaminase (ADA) for 15 minutes at room temperature to degrade endogenous adenosine. Membrane-Bead Mixture • Use 25 ug/well wheatgerm agglutinin-coated yttrium silicate SPA beads • Mix ADA-treated membranes and SPA beads together for 30 min prior to assay. Assay Assembly • Add in order to a Perkin-Elmer Optiplate-384: 10 ul of 5× compound, 20 ul of 2.5× [^3H]DPCPX, 20 ul membrane-bead mixture. Incubate for one hour at room temperature with agitation. • Include total binding (assay buffer+1% DMSO) and non-specific binding (DPCPX, 1 uM) wells. Counting and Calculations

[3] = 0.25 μg of membranes from HEK293 cells expressing the human A2a receptor
[4] = * assay run with 1 μg of membranes versus 0.25 μg, HEK293 cells expressing the human A2a receptor

human A2a receptor, sequence (P29274 whole entry): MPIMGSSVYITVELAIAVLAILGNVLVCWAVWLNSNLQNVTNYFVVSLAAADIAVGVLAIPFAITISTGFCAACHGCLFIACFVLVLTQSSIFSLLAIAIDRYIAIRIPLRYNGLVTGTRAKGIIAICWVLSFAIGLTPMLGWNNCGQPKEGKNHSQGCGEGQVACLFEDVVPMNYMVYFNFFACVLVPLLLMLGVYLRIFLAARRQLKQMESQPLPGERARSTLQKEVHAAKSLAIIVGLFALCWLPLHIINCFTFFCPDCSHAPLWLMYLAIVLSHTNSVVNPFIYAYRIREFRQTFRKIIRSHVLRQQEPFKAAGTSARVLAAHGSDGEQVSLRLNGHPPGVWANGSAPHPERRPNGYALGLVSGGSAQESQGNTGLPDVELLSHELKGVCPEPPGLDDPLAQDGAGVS

Structure (SMILES)	Ki [1, 3] [nM]	A2a selectivity (A2a A1 binding selectivity) [2]	Ki [1, 4] [nM]
COc1cccc2c(C(=O)NCc3nc(-c4ccccc4)c(C)o3)nc(N)nc12 [Example 31, 2-amino-8-methoxy-N-[(5-methyl-4-phenyl-oxazol-2-yl)methyl]quinazoline-4-carboxamide]	1.6	105	
CC1(O)CCN(c2cccc(CNC(=O)c3nc(N)nc4c(F)cccc34)n2)CC1 [Example 79, 2-amino-8-fluoro-N-[[6-(4-hydroxy-4-methyl-1-piperidyl)-2-pyridyl]methyl]quinazoline-4-carboxamide]	5.2	14	
Nc1nc(C(=O)NCc2ncccc2-c2ncccn2)c2cccc(F)c2n1 [Example 67, 2-amino-8-fluoro-N-[(3-pyrimidin-2-yl-2-pyridyl)methyl]quinazoline-4-carboxamide]	4	297	
COc1cccc2c(C(=O)NCc3cccc(CO)n3)nc(N)nc12 [Example 14, 2-amino-N-[[6-(hydroxymethyl)-2-pyridyl]methyl]-8-methoxy-quinazoline-4-carboxamide]	4.6	273	
Nc1nc(C(=O)NCc2cccc3cccnc23)c2cccc(OC(F)(F)F)c2n1 [Example 101, 2-amino-N-(8-quinolylmethyl)-8-(trifluoromethoxy)quinazoline-4-carboxamide]	0.2	88	
N#Cc1cccc2c(C(=O)NCc3cccc4cccnc34)nc(N)nc12 [Example 100, 2-amino-8-cyano-N-(8-quinolylmethyl)quinazoline-4-carboxamide]	2.1	163	
COc1ccc(C)c(CNC(=O)c2nc(N)nc3c(F)cccc23)n1 [Example 77, 2-amino-8-fluoro-N-[(6-methoxy-3-methyl-2-pyridyl)methyl]quinazoline-4-carboxamide]	0.8	62	
CC(C)Oc1cccc(-c2cccc(CNC(=O)c3nc(N)nc4c(F)cccc34)n2)c1 [Example 66, 2-amino-8-fluoro-N-[[6-(3-isopropoxyphenyl)-2-pyridyl]methyl]quinazoline-4-carboxamide]		3	3.8
COc1ccc(CNC(=O)c2nc(N)nc3c(OC)cccc23)nc1 [Example 22, 2-amino-8-methoxy-N-[(5-methoxy-2-pyridyl)methyl]quinazoline-4-carboxamide]	7.8	52	
COc1cccc2c(C(=O)NCc3cccc(Cc4ccccc4)n3)nc(N)nc12 [Example 103, 2-amino-N-((6-benzylpyridin-2-yl)methyl)-8-methoxyquinazoline-4-carboxamide]		42	2.5
COc1cccc2c(C(=O)NCc3nc(C(C)(C)O)ccc3C)nc(N)nc12 [Example 2, 2-amino-N-[[6-(1-hydroxy-1-methyl-ethyl)-3-methyl-2-pyridyl]methyl]-8-methoxy-quinazoline-4-carboxamide]	0.6	193	
Nc1nc(C(=O)NCC2CCN(c3ncc(F)cn3)CC2)c2cccc(F)c2n1 [Example 86, 2-amino-8-fluoro-N-[[1-(5-fluoropyrimidin-2-yl)-4-piperidyl]methyl]quinazoline-4-carboxamide]	8	141	
N#Cc1ccc(OCc2cccc(CNC(=O)c3nc(N)nc4c(F)cccc34)n2)cc1 [Example 47, 2-amino-N-[[6-[(4-cyanophenoxy)methyl]-2-pyridyl]methyl]-8-fluoro-quinazoline-4-carboxamide]		36	3.8
COc1cccc2c(C(=O)NCc3cccc(COCC4CC4)n3)nc(N)nc12 [Example 50, 2-amino-N-[[6-(cyclopropylmethoxy-methyl)-2-pyridyl]methyl]-8-methoxy-quinazoline-4-carboxamide]	1.3	160	
COc1cccc2c(C(=O)NCc3cccc(C(C)C)n3)nc(N)nc12 [Example 5, 2-amino-N-[(6-isopropyl-2-pyridyl)methyl]-8-methoxy-quinazoline-4-carboxamide]	0.2	146	
COc1ccc(C(C)(C)O)nc1CNC(=O)c1nc(N)nc2c(OC)cccc12 [Example 1, 2-amino-N-[[6-(1-hydroxy-1-methyl-ethyl)-3-methoxy-2-pyridyl]methyl]-8-methoxy-quinazoline-4-carboxamide]	10	145	
Cc1csc(-c2cccc(CNC(=O)c3nc(N)nc4c(F)cccc34)n2)n1 [Example 69, 2-amino-8-fluoro-N-[[6-(4-methylthiazol-2-yl)-2-pyridyl]methyl]quinazoline-4-carboxamide]	4.2	63	
CSc1cccc2c(C(=O)NCc3cccc4cccnc34)nc(N)nc12 [Example 94, 2-amino-8-methylsulfanyl-N-(8-quinolylmethyl)quinazoline-4-carboxamide]		11	7.7
COC(=O)c1ccccc1CNC(=O)c1nc(N)nc2c(F)cccc12 [Example 74, methyl 2-[[(2-amino-8-fluoro-quinazoline-4-carbonyl)amino]methyl]benzoate]		18	2.5
COc1cccc2c(C(=O)NCc3cccc4c3OC(F)(F)O4)nc(N)nc12 [Example 42, 2-amino-N-[(2,2,-difluoro-1,3-benzodioxol-4-yl)methyl]-8-methoxy-quinazoline-4-carboxamide]		39	5.3
Nc1nc(C(=O)NCc2ncccn2)c2cccc(I)c2n1 [Example 99, 2-amino-8-iodo-N-(pyrimidin-2-ylmethyl)quinazoline-4-carboxamide]	229	8	
